Reference: publication PMC5641347, “Aii810, a Novel Cold-Adapted N-Acylhomoserine Lactonase Discovered in a Metagenome, Can Strongly Attenuate Pseudomonas aeruginosa Virulence Factors and Biofilm Formation” (Frontiers in Microbiology, 2017)

Test system: T1, Aii810
T1 construct: E. coli BL21(DE3), Ni-NTA
Test: p-nitrophenol release at […] nm, Michaelis-Menten fit
Type: biochemical, uncultured bacterium
Conditions: 20°C, pH 6.5

`CC(=O)Oc1ccc([N+](=O)[O-])cc1` [C2, ρ-nitrophenyl acetate] showed a Km of 205 µM.
